In article PMC7604827 (Bioorganic & medicinal chemistry, 2011):
Counter-ions that a name gives are not always drawn. Like-named read-outs stand apart in the source and are kept apart here.

What was measured:
[1] = test system: cell–cell fusion reaction between target cells expressing CD4/CCR5 and effector cells expressing the envelope protein of HIV-1; type: cell-based
[2] = rat, 10 mg/kg, po
[3] = pH 6.8; cited from earlier work
human CCR5 [4] = target: T1, human CCR5 (Homo sapiens, UniProt P51681); conditions: (3R,1′R)-configuration versus other stereoisomers; cited from earlier work
[5] = test system: broad panel of receptors and transporters including the other chemokines; assay: Broad panel of receptors and transporters including the other chemokines
CCR5/hRANTES = CCR5/hRANTES (Cavia porcellus, UniProt A0A286Y1F6); conditions: read-out: CCR5/hRANTES Ca assay IC50; Guinea pig
[6] = up to the dosage of 100 mg/kg, po
in vivo = conditions: rat, po, 10 mg/kg
human CCR5 [7] = target: T1, human CCR5; type: cell-based
HIV-1Ba-L (R5) = conditions: inhibition of HIV p24 antigen expression in PBMC, mean ± SD, triplicate
HIV-1MM (R5MDR) = conditions: read-out: Anti-HIV-1 activity HIV-1MM (R5MDR) IC50 ± SD; inhibition of HIV p24 antigen expression in PBMC, mean ± SD, triplicate

T1 sequence (P51681 whole entry): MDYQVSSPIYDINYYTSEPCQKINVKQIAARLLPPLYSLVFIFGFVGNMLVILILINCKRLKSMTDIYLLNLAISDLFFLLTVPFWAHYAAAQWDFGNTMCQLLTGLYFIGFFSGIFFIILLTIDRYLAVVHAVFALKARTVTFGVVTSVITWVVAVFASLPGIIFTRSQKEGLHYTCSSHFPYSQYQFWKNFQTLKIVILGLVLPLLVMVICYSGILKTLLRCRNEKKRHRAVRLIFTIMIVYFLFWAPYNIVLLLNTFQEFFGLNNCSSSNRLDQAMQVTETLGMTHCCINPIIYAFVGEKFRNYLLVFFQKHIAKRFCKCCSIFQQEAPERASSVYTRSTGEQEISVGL
Chain of CCR5/hRANTES (A0A286Y1F6 1-353): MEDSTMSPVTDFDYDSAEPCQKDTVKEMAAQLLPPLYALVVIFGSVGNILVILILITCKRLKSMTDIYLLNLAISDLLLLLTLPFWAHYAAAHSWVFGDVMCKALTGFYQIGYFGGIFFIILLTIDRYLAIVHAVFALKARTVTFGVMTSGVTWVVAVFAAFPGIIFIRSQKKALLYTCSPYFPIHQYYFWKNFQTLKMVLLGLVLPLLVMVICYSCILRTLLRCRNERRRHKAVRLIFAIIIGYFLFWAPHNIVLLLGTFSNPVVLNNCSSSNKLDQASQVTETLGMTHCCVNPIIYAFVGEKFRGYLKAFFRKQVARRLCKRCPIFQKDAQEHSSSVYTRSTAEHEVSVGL

With CCCCN1C(=O)[C@@H](C(O)C2CCC(O)CC2)NC(=O)C12CCN(Cc1ccc(Oc3ccc(C(=O)O)cc3)cc1)CC2 (stereo in doubt) [Compound 20b, 4-[4-({(3R)-1-Butyl-3-[(R)-hydroxy(4-hydroxycyclohexyl)methyl]-2,5-dioxo-1,4,9-triazaspiro[5.5]undec-9-yl}methyl)phenoxy]benzoic acid hydrochloride] as the compound, how does the IC50 ([1]; read-out: Fusion assay IC50) read?
Its IC50 is 129 nM.

For CCCCN1C(=O)C(C(C)C)NC(=O)C12CCN(Cc1ccc(Oc3ccccc3)cc1)CC2.Cl (stereo not drawn) [Compound 1], which BA [2] is on record?
The BA was 1.3%.

And the aqueous solubility [3]?
Its aqueous solubility is “less than 0.2 μg/ml”.

Which BA [2] does the source give for CCCCN1C(=O)C(CC2CCCCC2)NC(=O)C12CCN(Cc1ccc(Oc3ccc(C(=O)NC)cc3)cc1)CC2.Cl (stereo not drawn) [Compound 2] here?
The BA was 1.9%.

Which “fold more potency than the other stereoisomers in the Ca assay” value (human CCR5 [4]) does the source give for CCCCN1C(=O)[C@@H]([C@H](O)C(C)C)NC(=O)C12CCN(Cc1ccc(Oc3ccccc3)cc1)CC2.Cl [Compound 3] here?
Its value is 4.5–12 fold.

Which BA [2] does the source give for CCCCN1C(=O)[C@H](CC2CCCCC2)NC(=O)C12CCN(Cc1ccc(Oc3ccc(C(=O)O)cc3)cc1)CC2.Cl [Compound 5] here?
The BA was 34%.

With CCCCN1C(=O)[C@@H]([C@H](O)C2CCCCC2)NC(=O)C12CCN(Cc1ccc(Oc3ccc(C(=O)O)cc3)cc1)CC2.Cl [Compound 6a, 4-[4-({(3R)-1-Butyl-3-[(R)-cyclohexyl(hydroxy)methyl]-2,5-dioxo-1,4,9-triazaspiro[5.5]undec-9-yl}methyl)phenoxy]benzoic acid hydrochloride] as the compound, how does the AMES test result (AMES test) read?
The AMES test result was “did not show any significant safety problem”.

And the “activity against a broad panel of receptors and transporters” value [5]?
Its value is “no significant activity”.

And the BA [2]?
The BA was 23%.

And the IC50 (CCR5/hRANTES)?
The IC50 was over 30000 nM.

And the “14-day rat safety study result” value [6]?
Its value is “did not show any significant safety problem”.

For CCCCN1C(=O)[C@@H]([C@H](O)C2CCCCC2)NC(=O)C12CCN(Cc1ccc(Oc3ccc(O)cc3)cc1)CC2 [Compound 8, (3R)-1-Butyl-3-[(R)-cyclohexyl(hydroxy)methyl]-9-[4-(4-hydroxyphenoxy)benzyl]-1,4,9-triazaspiro[5.5]undecane-2,5-dione hydrochloride], which IC50 ([1]; read-out: Fusion assay IC50) is on record?
The IC50 was 2.8 nM.

For CCCCN1C(=O)[C@@H]([C@H](O)C2CCCCC2)NC(=O)C12CCN(Cc1ccc(Oc3ccc(C(=O)NC)cc3)cc1)CC2.Cl [Compound 10, 4-[4-({(3R)-1-Butyl-3-[(R)-cyclohexyl(hydroxy)methyl]-2,5-dioxo-1,4,9-triazaspiro[5.5]undec-9-yl}methyl)phenoxy]-N-methylbenzamide hydrochloride], which BA [2] is on record?
Its BA is 10%.

What about the AUC (in vivo) of the same compound?
Its AUC is 1300 ng·h/mL.

What about the Cmax (in vivo) of the same compound?
Its Cmax is 333 ng/mL.

For CCCCN1C(=O)[C@@H]([C@H](O)C2CCCCC2)NC(=O)C12CCN(Cc1ccc(Oc3ccc(NS(C)(=O)=O)cc3)cc1)CC2.Cl [Compound 13, N-{4-[4-({(3R)-1-Butyl-3-[(R)-cyclohexyl (hydroxy)methyl]-2,5-dioxo-1,4,9-triazaspiro[5.5]undec-9-yl}methyl)phenoxy]phenyl}methanesulfonamide hydrochloride], which BA [2] is on record?
The BA was 5%.

And the AUC (in vivo)?
Its AUC is 242 ng·h/mL.

What about the Cmax (in vivo) of the same compound?
The Cmax was 50 ng/mL.

With CCCCN1C(=O)[C@@H]([C@H](O)C(C)C)NC(=O)C12CCN(Cc1ccc(Oc3ccc(C(=O)O)cc3)cc1)CC2.Cl [Compound 14, 4-[4-({(3R)-1-Butyl-3-[(1R)-1-hydroxy-2-methylpropyl]-2,5-dioxo-1,4,9-triazaspiro[5.5]undec-9-yl}methyl)phenoxy]benzoic acid hydrochloride] as the compound, how does the BA [2] read?
The BA was 5.9%.

And the AUC (in vivo)?
Its AUC is 150 ng·h/mL.

Which IC50 ([1]; read-out: Fusion assay IC50) does the source give for CCCCN1C(=O)[C@@H]([C@H](O)C2CCOCC2)NC(=O)C12CCN(Cc1ccc(Oc3ccc(C(=O)O)cc3)cc1)CC2 [Compound 19, 4-[4-({(3R)-1-Butyl-3-[(R)-hydroxy(tetrahydro-2H-pyran-4-yl)methyl]-2,5-dioxo-1,4,9-triazaspiro[5.5]undec-9-yl}methyl)phenoxy]benzoic acid hydrochloride] here?
The IC50 was 302 nM.

Which IC50 ([1]; read-out: Fusion assay IC50) does the source give for CCCCN1C(=O)[C@@H]([C@H](O)C2CCC(O)CC2)NC(=O)C12CCN(Cc1ccc(Oc3ccc(C(=O)O)cc3)cc1)CC2 (stereo partly drawn) [Compound 20a, 4-[4-({(3R)-1-Butyl-3-[(R)-hydroxy(4-hydroxycyclohexyl)methyl]-2,5-dioxo-1,4,9-triazaspiro[5.5]undec-9-yl}methyl)phenoxy]benzoic acid hydrochloride] here?
Its IC50 is 537 nM.

Which IC50 ([1]; read-out: Fusion assay) does the source give for CNC(=O)c1ccc(Oc2ccc(CN3CCC4(CC3)C(=O)N[C@H]([C@H](O)C3CCCCC3)C(=O)N4C)cc2)cc1 [Compound 22, 4-[4-({(3R)-3-[(R)-Cyclohexyl(hydroxy)methyl]-1-methyl-2,5-dioxo-1,4,9-triazaspiro[5.5]undec-9-yl}methyl)phenoxy]-N-methylbenzamide hydrochloride] here?
Its IC50 is 1860 nM.

With CCCN1C(=O)[C@@H]([C@H](O)C2CCCCC2)NC(=O)C12CCN(Cc1ccc(Oc3ccc(C(=O)O)cc3)cc1)CC2 [Compound 25, 4-[4-({(3R)-3-[(R)-Cyclohexyl(hydroxy)methyl]-2,5-dioxo-1-propyl-1,4,9-triazaspiro[5.5]undec-9-yl}methyl)phenoxy]benzoic acid hydrochloride] as the compound, how does the IC50 ([1]; read-out: Fusion assay) read?
Its IC50 is 112 nM.

With CCCN1C(=O)[C@@H]([C@H](O)C2CCCCC2)NC(=O)C12CCN(Cc1ccc(Oc3ccc(C(=O)NC)cc3)cc1)CC2.Cl [Compound 26, 4-[4-({(3R)-3-[(R)-Cyclohexyl(hydroxy)methyl]-2,5-dioxo-1-propyl-1,4,9-triazaspiro[5.5]undec-9-yl}methyl)phenoxy]-N-methylbenzamide hydrochloride] as the compound, how does the BA [2] read?
The BA was 11.2%.

What about the AUC (in vivo) of the same compound?
The AUC was 513 ng·h/mL.

What about the Cmax (in vivo) of the same compound?
Its Cmax is 133 ng/mL.

With CNC(=O)c1ccc(Oc2ccc(CN3CCC4(CC3)C(=O)N[C@H]([C@H](O)C3CCCCC3)C(=O)N4CCC(C)O)cc2)cc1 (stereo partly drawn) [Compound 30, 4-(4-{[(3R)-3-[(R)-Cyclohexyl(hydroxy)methyl]-1-(3-hydroxybutyl)-2,5-dioxo-1,4,9-triazaspiro[5.5]undec-9-yl]methyl}phenoxy)-N-methylbenzamide hydrochloride] as the compound, how does the IC50 ([1]; read-out: Fusion assay) read?
Its IC50 is about 10000 nM.

Which “fold less potent antagonist activity relative to 10” value (human CCR5 [7]) does the source give for CNC(=O)c1ccc(Oc2ccc(CN3CCC4(CC3)C(=O)N[C@H]([C@H](O)C3CCCCC3)C(=O)N4CCN)cc2)cc1.Cl.Cl [Compound 32, 4-[4-({(3R)-1-(2-Aminoethyl)-3-[(R)-cyclohexyl(hydroxy)methyl]-2,5-dioxo-1,4,9-triazaspiro[5.5]undec-9-yl}methyl)phenoxy]-N-methylbenzamide dihydrochloride] here?
The value was over 10 fold.

With CNC(=O)c1ccc(Oc2ccc(CN3CCC4(CC3)C(=O)N[C@H]([C@H](O)C3CCCCC3)C(=O)N4CCN(C)C)cc2)cc1.Cl.Cl [Compound 33, 4-[4-({(3R)-3-[(R)-Cyclohexyl(hydroxy)methyl]-1-[2-(dimethylamino)ethyl]-2,5-dioxo-1,4,9-triazaspiro[5.5]undec-9-yl}methyl)phenoxy]-N-methylbenzamide dihydrochloride] as the compound, how does the “fold less potent antagonist activity relative to 10” value (human CCR5 [7]) read?
The value was over 10 fold.

Which IC50 (HIV-1Ba-L (R5); read-out: Anti-HIV-1 activity HIV-1Ba-L (R5) IC50 ± SD) does the source give for SCH-351125 here?
Its IC50 is 4 ± 2 nM.

What about the IC90 (HIV-1Ba-L (R5); read-out: Anti-HIV-1 activity HIV-1Ba-L (R5) IC90 ± SD) of the same compound?
The IC90 was 79 ± 52 nM.

And the IC50 (HIV-1MM (R5MDR))?
Its IC50 is 3 ± 0.5 nM.
